Test results reported in US20050043341A1, “3-'Hydroxy-(-4-trifluoromethylphenyl)-methyl-7-spirocyclobutyl-5,6,7 8-tetrahydroquinolin-5-ol derivatives and the use of the same as cholesterol ester transfer protein (cetp) inhibitors” (priority 2001, published 2005).

Assays:
CETP [1] = molecular target: T1, CETP (Homo sapiens, UniProt P11597); test: CETP fluorescence test; format: biochemical; settings: CETP from human plasma, 37° C., 4 hours; read-out: IC50 (nM) Fluor. test
T1 construct: CETP is obtained in partially purified form from human plasma; from tissue; host or cells: human plasma
T1 sequence (P11597 18-493): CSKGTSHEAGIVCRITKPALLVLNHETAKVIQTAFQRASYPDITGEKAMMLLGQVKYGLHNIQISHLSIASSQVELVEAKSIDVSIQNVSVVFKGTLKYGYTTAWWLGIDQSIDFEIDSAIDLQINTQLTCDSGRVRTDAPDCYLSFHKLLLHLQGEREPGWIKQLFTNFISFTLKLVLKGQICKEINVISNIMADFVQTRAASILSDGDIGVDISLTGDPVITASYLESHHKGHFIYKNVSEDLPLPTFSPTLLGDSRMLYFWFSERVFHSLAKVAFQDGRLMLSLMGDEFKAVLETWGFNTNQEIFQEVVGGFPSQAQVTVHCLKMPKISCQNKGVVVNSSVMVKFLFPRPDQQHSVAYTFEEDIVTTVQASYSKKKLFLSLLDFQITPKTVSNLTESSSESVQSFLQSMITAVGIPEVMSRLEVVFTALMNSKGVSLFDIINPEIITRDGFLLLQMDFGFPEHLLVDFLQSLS
Description: (§1) CETP is obtained in partially purified form from human plasma by differential centrifugation and column chromatography and used for the test. To this end, human plasma is adjusted to a density of 1.21 g per ml using NaBr and centrifuged at 4° C. at 50000 rpm for 18 h. The bottom fraction (d>1.21 g/ml) is applied to a Sephadex® Phenyl-Sepharose 4B (Pharmacia) column, washed with 0.15 M NaCl/0.001 M tris HCl pH 7.4 and then eluted with dist. water. Die CETP-active fractions are pooled, dialysed against 50 mM Na acetate pH 4.5 and applied to a CM-Sepharose® (Pharmacia) column. The mixture is then eluted using a linear gradient (0-1 M NaCl). The pooled CETP fractions are dialysed against 10 mM TrisHCl pH 7.4 and then further purified by chromatography on a Mono Q® column (Pharmacia).
Measurement of the CETP-catalysed transfer of a fluorescent cholesterol ester between liposomes—modified according to the procedure of Bisgaier et al., J. Lipid Res. 34, 1625 (1993).
For the production of the donor liposomes, 1 mg of cholesteryl 4,4-difluoro-5,7-dimethyl-4-bora-3a,4a-diaza-s-indacene-3-dodecanoate (cholesteryl BODIPY® FL C12, Molecular Probes) is dissolved in 600 μl of dioxane with 5.35 mg of triolein and 6.67 mg of phosphatidylcholine with gentle warming in an ultrasonic bath and this solution is added very slowly with ultrasonication to 63 ml of 50 mM tris/HCl, 150 mM NaCl, 2 mM EDTA buffer pH 7.3 at RT.
The suspension is then ultrasonicated under an N2 atmosphere for 30 minutes in the Braukson ultrasonic bath at about 50 watts, the temperature being kept at about 20° C.
The acceptor liposomes are obtained analogously from 86 mg of cholesteryl oleate, 20 mg of triolein and 100 mg of phosphatidylcholine dissolved in 1.2 ml of dioxane and 114 ml of above buffer by ultrasonication at 50 watts (20° C.) for 30 minutes.
For testing, a test mix consisting of 1 part of above buffer, 1 part of donor liposomes and 2 parts of acceptor liposomes is used.
80 μl of test mix are treated with 1-3 μg of enriched CETP fraction, obtained from human plasma by means of hydrophobic chromatography, and 2 μl of the substance to be investigated in DMSO and incubated at 37° C. for 4 hours.
The change in the fluorescence at 485/535 nm is a measure of the CE transfer; the inhibition of the transfer in comparison to the control batch without substance is determined.

transgenic hCETP mice = test: In vivo activity in transgenic hCETP mice (HDL); settings: stomach tube
Description: In experiments for the determination of the oral action on lipoproteins and triglycerides, test substance is administered to transgenic mice using a stomach tube (Dinchuck, Hart, Gonzalez, Karmann, Schmidt, Wirak; BBA (1995), 1295, 301). Before the start of the experiment, blood is taken from the mice retroorbitally in order to determine cholesterol and triglycerides in the serum. The serum is obtained as described above for hamsters by incubation at 4° C. overnight and subsequent centrifugation at 6000×g. […] The change in the parameters measured is expressed as the percentage change compared with the starting value.

Syrian golden hamsters = test: In vivo activity in Syrian golden hamsters (HDL cholesterol); settings: perorally
Description: In experiments for the determination of the oral action on lipoproteins and triglycerides, test substance dissolved in DMSO and 0.5% suspended in Tylose are administered perorally by means of a stomach tube to Syrian golden hamsters bred in-house. For the determination of the CETP activity, before the start of the experiment blood is taken by retro-orbital puncture (about 250 μl). The test substances are then administered perorally by means of a stomach tube. The control animals receive identical volumes of solvent without test substance. The feed is then withdrawn from the animals and blood is taken at various times—up to 24 hours after substance administration—by puncture of the retroorbital venous plexus.
Clotting is terminated by incubation at 4° C. overnight, then centrifugation is carried out for 10 minutes at 6000×g. The content of cholesterol and triglycerides in the serum thus obtained is determined with the aid of modified commercially obtainable enzymatic tests (Ecoline 25 Cholesterol 1.14830.0001 Merck Diagnostica, Ecoline 25 Triglycerides 1.14856.0001 Merck Diagnostica). Serum is suitably diluted using physiological saline solution.
10 μl of serum dilution are treated with 200 μl of Ecoline 25 reagent in 96-hole plates and incubated for 10 minutes at room temperature. The optical density is then determined at a wavelength of 490 nm using an automatic plate reader. The triglyceride or cholesterol concentration contained in the samples is determined with the aid of a standard curve measured in parallel.
The determination of the content of HDL cholesterol is carried out after precipitation of the ApoB-containing lipoproteins (Sigma 352-4 HDL cholesterol reagent) according to the manufacturer's instructions.

CETP [2] = molecular target: T1, CETP; test: CETP-SPA test; format: biochemical; settings: 3H-cholesterol ester transfer from HDL to biotin-LDL, 37° C., 18 h
Description: as §1
50 ml of fresh human EDTA plasma are adjusted to a density of 1.12 using NaBr and centrifuged at 4° C. in a Ty 65 rotor at 50000 rpm for 18 h. The upper phase is used for the obtainment of cold LDL. The lower phase is dialysed against 3×41 of PDB buffer (10 mM tris/HCl pH 7.4, […], 1 mM EDTA, 0.02% NaN3). Per 10 ml of retentate volume, 20 μl of 3H-cholesterol (Dupont NET-725; 1 μC/μl dissolved in ethanol!) is then added and the mixture is incubated at 37° C. under N2 for 72 h.
The batch is then adjusted to the density 1.21 using NaBr and centrifuged at 20° C. in a Ty 65 rotor at 50000 rpm for 18 h. The upper phase is recovered and the lipoprotein fractions are purified by gradient centrifugation. To this end, the isolated, labelled lipoprotein fraction is adjusted to a density of 1.26 using NaBr. 4 ml each of this solution are covered in centrifuged tubes (SW 40 rotor) with a layer of 4 ml of a solution of density 1.21 and 4.5 ml of a solution of 1.063 (density solutions of PDB buffer and NaBr) and then centrifuged for 24 h at 38000 rpm and 20° C. in the SW 40 rotor. The intermediate layer lying between the density 1.063 and 1.21, containing the labelled HDL, is dialysed against 3×100 volumes of PDB buffer at 4° C.
The retentate contains radiolabelled ^3H-CE-HDL, which, adjusted to about 5×10^6 cmp per ml, is used for the test.
For testing of the CETP activity, the transfer of ^3H-cholesterol ester from human HD lipoproteins to biotinylated LD lipoproteins is measured.
The reaction is ended by addition of streptavidin-SPA®beads (Amersham) and the transferred radioactivity is determined directly in a liquid scintillation counter.
In the test batch, 10 μl of HDL-^3H-cholesterol ester (˜50000 cpm) are incubated at 37° C. for 18 h with 10 μl of biotin-LDL (Amersham) in 50 mM Hepes/0.15 M NaCl/0.1% bovine serum albumin/0.05% NaN3 pH 7.4 containing 10 μl of CETP (1 mg/ml) and 3 μl of solution of the substance to be tested (dissolved in 10% DMSO/1% RSA). 200 μl of the SPA-streptavidin bead solution (TRKQ 7005) are then added, incubated further with shaking for 1 h and then measured in a scintillation counter.
Corresponding incubations with 10 μl of buffer, 10 μl of CETP at 4° C. and 10 μl of CETP at 37° C. serve as controls.
The activity transferred in the control batches with CETP at 37° C. is rated as 100% transfer. The substance concentration at which this transfer is reduced to half is specified as the IC50 value.

IC50 (CETP [1]) [nM]	IC50 (CETP [2]) [nM]	SMILES	% HDL increase after 4 d (Dose: 4 × 10 mg/kg) (transgenic hCETP mice) [%]	% HDL increase after 24 h (Dose: 2 × 10 mg/kg) (Syrian golden hamsters) [%]
70	–	CC(C)c1nc2c(c(C3CCCC3)c1[C@@H](O)c1ccc(C(F)(F)F)cc1)[C@@H](O)CC1(CCC1)C2 [Example 69, (5S)-2-Isopropyl-4-cyclopentyl-3-[(S)-hydroxy-(4-trifluoromethylphenyl)-methyl]-7-spirocyclobutyl-5,6,7,8-tetrahydroquinolin-5-ol]	28	–
40	–	O[C@@H](c1ccc(C(F)(F)F)cc1)c1c(C2CCCC2)nc2c(c1C1CCCC1)[C@@H](O)CC1(CCC1)C2 [Example 71, (5S)-2,4-Dicyclopentyl-3-[(S)-hydroxy-(4-trifluoromethylphenyl)-methyl]-7-spirocyclobutyl-5,6,7,8-tetrahydroquinolin-5-ol]	–	14
9	5	O[C@@H](c1ccc(C(F)(F)F)cc1)c1c(C2CCCC2)nc2c(c1-c1ccc(F)cc1)[C@@H](O)CC1(CCC1)C2 [Example 80, (5S)-2-Cyclopentyl-4-(4-fluorophenyl)-3-[(S)-hydroxy-(4-trifluoromethylphenyl)-methyl]-7-spirocyclobutyl-5,6,7,8-tetrahydroquinolin-5-ol]	–	17
